Laboratory results published in the NIST ThermoML archive (doi:10.1016/j.jct.2016.03.026).

Assay: xn = mol fraction of the nth substance listed
Conditions: 313.15 K, Fluid (supercritical or subcritical phases), Vibrating tube method, x1 = 0.97

O=C=O [carbon dioxide] + CO
Conditions | mass density [kg/m3]
11150 kPa | 721.68
11175 kPa | 722.44
11200 kPa | 723.12
11225 kPa | 723.83
11250 kPa | 724.5
11275 kPa | 725.17
11300 kPa | 725.87
11325 kPa | 726.55
11350 kPa | 727.24
11375 kPa | 727.87
11400 kPa | 728.58
11425 kPa | 729.26
11450 kPa | 729.89
11475 kPa | 730.56
11500 kPa | 731.23
11525 kPa | 731.88
11550 kPa | 732.54
11575 kPa | 733.12
11600 kPa | 733.75
11625 kPa | 734.36
11650 kPa | 734.97
11675 kPa | 735.62
11700 kPa | 736.24
11725 kPa | 736.79
11750 kPa | 737.41
11775 kPa | 738.01
11800 kPa | 738.59
11825 kPa | 739.2
11850 kPa | 739.81
11875 kPa | 740.42
11900 kPa | 741.01
11925 kPa | 741.62
11950 kPa | 742.23
11975 kPa | 742.81
12000 kPa | 743.38
12025 kPa | 743.98
12050 kPa | 744.51
12075 kPa | 745.12
12100 kPa | 745.65
12125 kPa | 746.23
12150 kPa | 746.78
12175 kPa | 747.4
12200 kPa | 747.95
12225 kPa | 748.48
12250 kPa | 749.04
12275 kPa | 749.5
12300 kPa | 750.05
12325 kPa | 750.56
12350 kPa | 751.14
12375 kPa | 751.63
12400 kPa | 752.14
12425 kPa | 752.63
12450 kPa | 753.18
12475 kPa | 753.64
12500 kPa | 754.12
12525 kPa | 754.59
12550 kPa | 755.09
12575 kPa | 755.53
12600 kPa | 756
12625 kPa | 756.47
12650 kPa | 756.92
12675 kPa | 757.39
12700 kPa | 757.86
12725 kPa | 758.3
12750 kPa | 758.68
12775 kPa | 759.12
12800 kPa | 759.54
12825 kPa | 759.98
12850 kPa | 760.36
12875 kPa | 760.82
12900 kPa | 761.3
12925 kPa | 761.76
12950 kPa | 762.23
12975 kPa | 762.72
13000 kPa | 763.15
13025 kPa | 763.58
13050 kPa | 764.07
13075 kPa | 764.54
13100 kPa | 764.93
13125 kPa | 765.37
13150 kPa | 765.86
13175 kPa | 766.29
13200 kPa | 766.75
13225 kPa | 767.22
13250 kPa | 767.6
13275 kPa | 768.04
13300 kPa | 768.47
13325 kPa | 768.93
13350 kPa | 769.37
13375 kPa | 769.83
13400 kPa | 770.23
13425 kPa | 770.69
13450 kPa | 771.07
13475 kPa | 771.5
13500 kPa | 771.93
13525 kPa | 772.34
13550 kPa | 772.7
13575 kPa | 773.15
13600 kPa | 773.57
13625 kPa | 773.92
13650 kPa | 774.36
13675 kPa | 774.79
13700 kPa | 775.16
13725 kPa | 775.57
13750 kPa | 776
13775 kPa | 776.36
13800 kPa | 776.72
13825 kPa | 777.12
13850 kPa | 777.52
13875 kPa | 777.93
13900 kPa | 778.33
13925 kPa | 778.72
13950 kPa | 779.11
13975 kPa | 779.47
14000 kPa | 779.85
14025 kPa | 780.28
14050 kPa | 780.67
14075 kPa | 781.06
14100 kPa | 781.44
14125 kPa | 781.8
14150 kPa | 782.18
14175 kPa | 782.55
14200 kPa | 782.93
14225 kPa | 783.28
14250 kPa | 783.65
14275 kPa | 784.01
14300 kPa | 784.39
14325 kPa | 784.77
14350 kPa | 785.15
14375 kPa | 785.52
14400 kPa | 785.88
14425 kPa | 786.27
14450 kPa | 786.66
14475 kPa | 787.01
14500 kPa | 787.34
14525 kPa | 787.73
14550 kPa | 788.05
14575 kPa | 788.43
14600 kPa | 788.78
14625 kPa | 789.1
14650 kPa | 789.51
14675 kPa | 789.86
14700 kPa | 790.23
14725 kPa | 790.55
14750 kPa | 790.91
14775 kPa | 791.25
14800 kPa | 791.65
14825 kPa | 791.96
14850 kPa | 792.31
14875 kPa | 792.64
14900 kPa | 793.03
14925 kPa | 793.37
14950 kPa | 793.74
14975 kPa | 794.09
15000 kPa | 794.4
15025 kPa | 794.78
15050 kPa | 795.16
15075 kPa | 795.5
15100 kPa | 795.8
15125 kPa | 796.2
15150 kPa | 796.56
15175 kPa | 796.89
15200 kPa | 797.19
15225 kPa | 797.52
15250 kPa | 797.89
15275 kPa | 798.26
15300 kPa | 798.53
15325 kPa | 798.91
15350 kPa | 799.22
15375 kPa | 799.54
15400 kPa | 799.88
15425 kPa | 800.19
15450 kPa | 800.53
15475 kPa | 800.87
15500 kPa | 801.17
15525 kPa | 801.53
15550 kPa | 801.84
15575 kPa | 802.17
15600 kPa | 802.47
15625 kPa | 802.79
15650 kPa | 803.12
15675 kPa | 803.42
15700 kPa | 803.73
15725 kPa | 804.02
15750 kPa | 804.34
15775 kPa | 804.65
15800 kPa | 804.99
15825 kPa | 805.27
15850 kPa | 805.58
15875 kPa | 805.91
15900 kPa | 806.23
15925 kPa | 806.51
15950 kPa | 806.83
15975 kPa | 807.09
16000 kPa | 807.41
16025 kPa | 807.71
16050 kPa | 807.98
16075 kPa | 808.29
16100 kPa | 808.61
16125 kPa | 808.91
16150 kPa | 809.2
16175 kPa | 809.5
16200 kPa | 809.79
16225 kPa | 810.09
16250 kPa | 810.39
16275 kPa | 810.69
16300 kPa | 810.98
16325 kPa | 811.27
16350 kPa | 811.55
16375 kPa | 811.82
16400 kPa | 812.11
16425 kPa | 812.38
16450 kPa | 812.66
16475 kPa | 812.9
16500 kPa | 813.24
16525 kPa | 813.5
16550 kPa | 813.76
16575 kPa | 814.03
16600 kPa | 814.33
16625 kPa | 814.6
16650 kPa | 814.87
16675 kPa | 815.12
16700 kPa | 815.43
16725 kPa | 815.67
16750 kPa | 815.94
16775 kPa | 816.22
16800 kPa | 816.46
16825 kPa | 816.74
16850 kPa | 817
16875 kPa | 817.27
16900 kPa | 817.54
16925 kPa | 817.8
16950 kPa | 818.05
16975 kPa | 818.28
17000 kPa | 818.55
17025 kPa | 818.81
17050 kPa | 819.06
17075 kPa | 819.27
17100 kPa | 819.55
17125 kPa | 819.79
17150 kPa | 820.09
17175 kPa | 820.32
17200 kPa | 820.54
17225 kPa | 820.77
